Results as given in PubChem BioAssay AID1845216 (Molecular Pharmacology Branch, DTP, NCI, 2023).

System: SW 982 tumor spheroid viability
Experiment: Anticancer human tumor SW 982 cell line growth inhibition;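 further: spheroids exposed to compound for 7 days before readout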
Conditions: spheroids with HUVEC and MSC; for IC50: curve of first compound; for viability, T/C: stronger effect = lower value
Method in brief: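 Complex tumor spheroids combined malignant cells with endothelial cells and mesenchymal stem cells. DNA-damaging drugs and DNA repair inhibitors were tested alone and in combination, at half-log dilutions down from clinical Cmax (top 10 microM if Cmax unknown), 0.25% DMSO final.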

`[2H]c1nc(C)nc([2H])c1-c1cc(NC[C@@H](C)c2cccc3c(C(=O)NC)ccnc23)ncn1` + Cn1nnc2c(C(N)=O)ncn2c1=O gave an IC50 (second compound 1 µM) of over 10 µM, an IC50 (second compound 3.16 µM) of over 10 µM and an IC50 (second compound 10 µM) of over 10 µM. For the same molecule, the IC50 (second compound 31.6 µM) was over 10 µM, the IC50 (second compound 100 µM) was over 10 µM and the viability, T/C (second compound 1 µM, first compound 0.0316 µM) was 100%. It also gave a viability, T/C (second compound 1 µM, first compound 0.1 µM) of 102%, a viability, T/C (second compound 1 µM, first compound 0.316 µM) of 92.6% and a viability, T/C (second compound 1 µM, first compound 1 µM) of 103%. The viability, T/C (second compound 1 µM, first compound 3.16 µM) was 106%, the viability, T/C (second compound 1 µM, first compound 10 µM) was 82.3% and the viability, T/C (second compound 3.16 µM, first compound 0.0316 µM) was 92.6%. It also gave a viability, T/C (second compound 3.16 µM, first compound 0.1 µM) of 86.4%, a viability, T/C (second compound 3.16 µM, first compound 0.316 µM) of 96% and a viability, T/C (second compound 3.16 µM, first compound 1 µM) of 86.8%. It also gave a viability, T/C (second compound 3.16 µM, first compound 3.16 µM) of 63.9%, a viability, T/C (second compound 3.16 µM, first compound 10 µM) of 55.1% and a viability, T/C (second compound 10 µM, first compound 0.0316 µM) of 83.8%. The viability, T/C (second compound 10 µM, first compound 0.1 µM) was 76%, the viability, T/C (second compound 10 µM, first compound 0.316 µM) was 78.5% and the viability, T/C (second compound 10 µM, first compound 1 µM) was 80.7%. It also gave a viability, T/C (second compound 10 µM, first compound 3.16 µM) of 71.7%, a viability, T/C (second compound 10 µM, first compound 10 µM) of 59.8% and a viability, T/C (second compound 31.6 µM, first compound 0.0316 µM) of 69.5%. The viability, T/C (second compound 31.6 µM, first compound 0.1 µM) was 76.2%, the viability, T/C (second compound 31.6 µM, first compound 0.316 µM) was 76.8% and the viability, T/C (second compound 31.6 µM, first compound 1 µM) was 72.5%. The viability, T/C (second compound 31.6 µM, first compound 3.16 µM) was 76.5%, the viability, T/C (second compound 31.6 µM, first compound 10 µM) was 71.2% and the viability, T/C (second compound 100 µM, first compound 0.0316 µM) was 63.5%. For the same molecule, the viability, T/C (second compound 100 µM, first compound 0.1 µM) was 63.4%, the viability, T/C (second compound 100 µM, first compound 0.316 µM) was 58% and the viability, T/C (second compound 100 µM, first compound 1 µM) was 60.9%. For the same molecule, the viability, T/C (second compound 100 µM, first compound 3.16 µM) was 56.9% and the viability, T/C (second compound 100 µM, first compound 10 µM) was 60.7%.
